This note sets out measurements from patent US9233136B2, “4-amino-4-oxobutanoyl peptides as inhibitors of viral replication” (Achillion Pharmaceuticals, Inc., priority 2006, dated 2016).

In the assay the test system is Hepatitis C replicon in Huh-7 cells. The assay can be described thus: HCV replicon replication assay (NPT ELISA). It is filed as cell-based. As to conditions: Hepatitis C virus, Huh-7, 72 h. The method, then: Compounds claimed herein are tested for the ability to inhibit viral replication of the Hepatitis C replicon in cultured cells in which the HCV replicon construct has been incorporated. The HCV replicon system was described by Bartenschlager, et. al (Science, 285, pp. 110-113 (1999)). The replicon system is predictive of in vivo anti-HCV activity; compounds that are active in humans uniformly evidence activity in the replicon assay.
In this assay HCV replicon containing cells are treated with different concentrations of the test compound to ascertain the ability of the test compound to suppress replication of the HCV replicon. As a positive control, HCV replicon-containing cells are treated with different concentrations of interferon alpha, a known inhibitor of HCV replication. The replicon assay system includes Neomycin Phosphotransferase (NPT) as a component of the replicon itself in order to detect the transcription of replicon gene products in the host cell. Cells in which the HCV replicon is actively replicating have high levels of NPT; the level of NPT is proportional to HCV replication. […] The NPT level of each sample is measured using a captured ELISA.
A protocol for testing compounds for the ability to inhibit viral replication of the Hepatitis C replicon cultured cells in which the replicon construct has been incorporated, follows.
The HCV replicon contains, 5′-3′, the HCV-IRES, the neomycin phosphotransferase (neo) gene, the IRES of encephalomyocarditis virus, which directs translation of HCV sequences NS3 to NS5B, and the 3′-NTR. The sequence of the HCV replicon has been deposited in GenBank (Accession no. AJ242652).
The replicon is transfected into Huh-7 cells using standard methods such as electroporation.
The cells are then seeded onto 96-well plates at a density of 6000-7500 cells/100 microliters/well (6-7.5×10^5 cells/10 ml/plate). The plates are then incubated at 37° C. in a 5% CO2 incubator.
HCV replicon-containing cells are rinsed with once PBS once; 2 mls of trypsin are then added. Cells are incubated at 37° C. in a 5% CO2 incubator for 3-5 minutes. 10 mls of complete medium is added to stop the reaction. Cells are blown gently, put into a 15 ml tube, and spun at 1200 rpm for four minutes. The trypsin/medium solution is removed and 5 mls of medium (500 ml DMEM (high glucose)) from BRL catalog #12430-054; 50 mls 10% FBS, 5% Geneticin G418 (50 mg/ml, BRL catalog #10131-035), 5 ml MEM non-essential amino acids (100×BRL #11140-050) and 5 ml pen-strep (BRL #15140-148) is added. The cells and media are mixed carefully
Cells are plated with screening medium (500 ml DMEM (BRL #21063-029), 50 ml FBS (BRL #10082-147) and 5 ml MEM non-essential amino acid (BRL #11140-050) at 6000-7500 fcells/100 μl/well of 96 well plate (6-7.5×10^5 cells/10 ml/plate). Plates are placed into 37° C. 5% CO2 incubator overnight.
The following morning, drugs (test compounds or interferon alpha) are diluted in 96 well U bottom plates with media or DMSO/media, depending on the final concentration chosen for screening. Generally for 6 concentrations of each test compounds ranging from 10 micromolar to 0.03 micromolar are applied. 100 μl of the test compound dilution is placed in wells of the 96 well plate containing the HCV replicon cells. Media without drug is added to some wells as a negative controls. DMSO is known to affect cell growth. Therefore, if drugs diluted in DMSO are used, all wells, including negative control (media only) and positive control (interferon alpha) wells, must contain the same concentration of DMSO, for single dose screening. The plates are incubated at 37° C. in a humidified 5% CO2 environment for three days.
On day four, the NTPII assay is quantitated. The medium is poured from the plates and the plates are washed once in 200 μl of PBS. The PBS is then decanted and the plates tapped in a paper towel to remove any remaining PBS. […]
For orientation: A replicon is a self-replicating genome or part of one, used to study replication in cells.

What is called EC50 is the concentration giving half of the maximal effect. `COc1ccc2c(O[C@@H]3C[C@H]4C(=O)N[C@]5(C(=O)NS(=O)(=O)C6CC6)C[C@H]5/C=C\CCCCC[C@H](CC(=O)N5CCCCC5)C(=O)N4C3)cc(-c3ccccc3)nc2c1` [Compound 58, (2R,6R,13aS,14aR,16aS,Z)-N-(cyclopropylsulfonyl)-2-(7-methoxy-2-phenylquinolin-4-yloxy)-5,16-dioxo-6-(2-oxo-2-(piperidin-1-yl)ethyl)-1,2,3,5,6,7,8,9,10,11,13a,14,14a,15,16,16a-hexadecahydrocyclopropa[e]pyrrolo[1,2-a] [1,4]diazacyclopentadecine-14a-carboxamide] came in with a concentration for a half-maximal effect (EC50) below 100 nM.

`COc1ccc2c(O[C@@H]3C[C@H]4C(=O)N[C@@]5(C(=O)NS(=O)(=O)C6CC6)C[C@@H]5/C=C\CCCCC[C@H](CC(=O)N5CCCCC5)C(=O)N4C3)cc(-c3ccccc3)nc2c1` [Compound 59, (2R,6R,13aR,14aS,16aS,Z)-N-(cyclopropylsulfonyl)-2-(7-methoxy-2-phenylquinolin-4-yloxy)-5,16-dioxo-6-(2-oxo-2-(piperidin-1-yl)ethyl)-1,2,3,5,6,7,8,9,10,11,13a,14,14a,15,16,16a-hexadecahydrocyclopropa[e]pyrrolo[1,2-a] [1,4]diazacyclopentadecine-14a-carboxamide] registered a concentration for a half-maximal effect (EC50) below 100 nM.

For the compound `C=C[C@@H]1C[C@]1(NC(=O)[C@@H]1C[C@@H](Oc2cc(-c3ccccc3)nc3cc(OC)ccc23)CN1C(=O)[C@@H](CC(=O)N1CCCCC1)C(C)(C)C)C(=O)NS(=O)(=O)C1CC1` [Compound 60, (2S,4R)-1-((S)-2-tert-butyl-4-oxo-4-(piperidin-1-yl)butanoyl)-N-((1R,2S)-1-(cyclopropylsulfonylcarbamoyl)-2-vinylcyclopropyl)-4-(7-methoxy-2-phenylquinolin-4-yloxy)pyrrolidine-2-carboxamide], the EC50 was below 100 nM.
